Experiments:
[1] = toxicities (lethality, body weight change) in the LXFL H460 xenograft study; format: in vivo, nude mice (NMRI nu/nu); conditions: single therapy: CYC202 300 mg/kg/d po bd days 0-4, 7-11, 14-18, TXT 20 mg/kg iv days 0, 14; for Median BWC % (day 21): one week after last therapy of docetaxel
[2] = system: breast tumor cells (MDA-435); assay: MTT assay, roscovitine exposure followed by docetaxel; conditions: single agent at 100% of its IC50 (roscovitine 15 ug/ml or Tax. […])
[3] = system: lung cancer xenograft (LXFL H460); assay: human tumour xenograft study, Experiment 2: docetaxel/roscovitine scheduling (LXFL H460); format: in vivo, nude mice (NMRI nu/nu); conditions: for T/C [%] day 28 / T/Copt [%] / dayopt. (day of T/Copt): single therapy: CYC202 300 mg/kg/d po bd days 0-4, 7-11, 14-18, TXT 20 mg/kg iv days 0, 14
[4] = system: MAXF 857 primary breast cancer xenograft; conditions: taxotere on day 2, roscovitine on days 0-3 and 7-9 after randomization, or the combination of the two treatments

| Compound | Lethality n (day) [1] | Median BWC % (day 21) [1] | % Response [2] [%] | Tumor growth delay in relation to the vehicle treated control ([3]; LXFL H460, combination Schedule 1, or docetaxel in single therapy) [days] | T/C [%] day 28 [3] [%] | T/Copt [%] [3] [%] | dayopt. (day of T/Copt) [3] [days] | T/C [%] day 28 ([3]; listed as TXT) [%] | optimal T/C [4] [%] | % Abs [2] [%] | T/C [%] day 28 ([3]; listed as CYC202) [%] |
| --- | --- | --- | --- | --- | --- | --- | --- | --- | --- | --- | --- |
| CC(=O)O[C@@]12CO[C@@H]1C[C@H](O)[C@@]1(C)C(=O)[C@H](O)C3=C(C)[C@@H](OC(=O)[C@H](O)[C@@H](NC(=O)OC(C)(C)C)c4ccccc4)C[C@@](O)([C@@H](OC(=O)c4ccccc4)[C@H]21)C3(C)C [docetaxel] | 0/10 | −4.2% | 40.7 | 9 | 27 | 12.2 | 10 | 27.3 | 21 | – | – |
| CC[C@H](CO)Nc1nc(NCc2ccccc2)c2ncn(C(C)C)c2n1 [roscovitine, 6-benzylamino-2-[(R)-1-ethyl-2-hydroxyethylamino]-9-isopropylpurine] | – | +7.1% | 43.3 | – | 64 | 64.3 | 28 | – | 63 | 0 | 64.3 |

From US20050277656A1, “Combination comprising docetaxel and a CDK inhibitor” (Cyclacel Limited, priority 2002, published 2005)
